According to patent publication US5521193A, “Benzimidazole compounds” (G. D. Searle & Co., priority 1995, dated 1996):
pEC50, pKi: −log10 of the molar value.

Columns and labels:
[1] = tested on: 5-HT3; test: Bezold-Jarisch Reflex (inhibition of 5-HT-induced bradycardia in anesthetized mice); assay type: in vivo; conditions: i.p., 30 min before 5-HT 0.25 mg/kg i.v.; >50 percent reduction in bradycardic response vs vehicle considered significant; pentobarbital anesthetized mice
Protocol: (§1) 5-HT4 agonist activity was determined in the in vitro rat tunice muscularis mucosae (TMM) assay. (Baxter et el., Naunyn Schmied Arch. Pharmacol, 1991, 343,439). The 5-HT4 agonist or antagonist activity and/or 5-HT3 antagonist activity of the compounds of the invention herein, can be determined by the assays as described herein, without undue experimention.
The compound to be evaluated was administered i.p. (mg/kg) to a group of 3 mice. […] A greater than 50 percent (>50) reduction in the bradycardic response relative to vehicle-treated control mice was considered significant.
This method has been described by Saxena, P. R. and Lawang, A., Arch. Int. Pharmacodyn., 277:235-252, 1985.
The assay results for the compounds of the present invention and their Minimum Effective Dose (MED) and the reference compounds and their MEDs are recorded in Table I.

[2] = molecular target: T1, 5-HT3 receptor (Rattus norvegicus, UniProt P35563); test: Serotonin (5-HT3) radioligand binding, [3H]-GR65630, rat brain cortex membranes; conditions: Ki, [3H]-GR65630 0.2 nM; 60 min, 22° C.
T1 construct: Brain cortices were obtained from male rats and a membrane fraction prepared by standard techniques; from tissue; host or cells: rat brain cortex membranes
T1 sequence (P35563 24-483): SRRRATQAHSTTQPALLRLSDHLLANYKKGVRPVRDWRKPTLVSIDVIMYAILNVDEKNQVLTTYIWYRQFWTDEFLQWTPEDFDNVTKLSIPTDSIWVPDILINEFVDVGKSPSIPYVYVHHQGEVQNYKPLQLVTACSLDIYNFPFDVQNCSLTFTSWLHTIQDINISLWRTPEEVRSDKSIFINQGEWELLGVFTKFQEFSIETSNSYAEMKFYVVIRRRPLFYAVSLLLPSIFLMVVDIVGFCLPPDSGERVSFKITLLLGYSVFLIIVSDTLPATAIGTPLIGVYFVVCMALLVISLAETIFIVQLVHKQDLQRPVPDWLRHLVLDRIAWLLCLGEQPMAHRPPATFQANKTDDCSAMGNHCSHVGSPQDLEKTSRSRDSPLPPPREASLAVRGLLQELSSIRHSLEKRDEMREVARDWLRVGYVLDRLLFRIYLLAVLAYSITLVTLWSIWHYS
Protocol: GR65630 binds to the 5-HT3 receptor. Brain cortices were obtained from male rats and a membrane fraction prepared by standard techniques. 0.04 mg of membrane prep was incubated with 0.2 nM […] for 60 minutes at 22° C. […] Membranes were filtered and washed times and the filters were counted to determine [3H]-GR65630 specifically bound. Kilpatrick G. J., Jones B. J. and Tyers M. B. Identification and distribution of 5-HT3 receptors in rat brain using radioligand binding assay. Nature, 330 : 746-748, 1987.

[3] = molecular target: T2, 5-HT4 receptor (Rattus norvegicus, UniProt Q62758); test: biochemical; conditions: carbachol (3 μM)-contracted rat esophagus TMM; 37° C.; tissues from 5 rats; read-out: 5-HT4 Agonism (Rat TMM) In Vitro Assay: EC50 Values
T2 construct: One 2 cm segment of intrathoracic esophagus proximal to the diaphragm was removed from male rats; from tissue; host or cells: rat intrathoracic oesophagus, inner tunica muscularis mucosae
T2 sequence (Q62758 whole entry): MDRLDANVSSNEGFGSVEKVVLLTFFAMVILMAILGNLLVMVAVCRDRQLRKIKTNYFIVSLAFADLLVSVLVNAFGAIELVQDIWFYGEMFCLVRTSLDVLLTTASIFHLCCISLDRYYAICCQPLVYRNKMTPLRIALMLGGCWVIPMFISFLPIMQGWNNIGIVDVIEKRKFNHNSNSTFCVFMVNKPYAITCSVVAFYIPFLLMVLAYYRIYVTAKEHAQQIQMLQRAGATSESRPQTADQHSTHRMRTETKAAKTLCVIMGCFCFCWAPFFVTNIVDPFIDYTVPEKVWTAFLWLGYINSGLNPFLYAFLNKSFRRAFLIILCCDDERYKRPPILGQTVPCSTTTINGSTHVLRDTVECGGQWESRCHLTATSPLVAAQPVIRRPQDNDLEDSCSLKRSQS
Protocol: as §1
Agonist activity was determined utilizing relaxation of carbachol-contracted rat tunica muscularis mucosae. One 2 cm segment of intrathoracic esophagus proximal to the diaphragm was removed from male rats, weighing approximately 300 gm, and the outer muscle layers removed. The inner tunica muscularis mucosa was mounted under 0.2-0.3 g of tension in a tissue bath containing oxygenated Tyrode's solution at 37° C. […] Following a 30 min equilibrium period, tissues were isometrically contracted with carbachol (3 μM) to obtain a tonic contraction. A stable plateau was obtained within 20 min when test compound was added cumulatively to relax the muscle strip. EC50 values were obtained for each agonist in tissues from 5 rats.

SMILES	Minimum Effective Dose (MED) [1] [mg/kg]	pKi [2]	pEC50 [3]
CC(C)n1c(=O)n(C(=O)NCCC23CCCN2CCC3)c2ccccc21 [Example 13, N-[2-(hexahydro-7aH-pyrrolizin-7a-yl)ethyl]-2,3-dihydro-3-(1-methylethyl) 2-oxo-1H-benzimidazole-1-carboxamide]	10	6.92	6.75
CN1C2CCCC1CC(NC(=O)c1nn(C)c3ccccc13)C2 (stereo not shown) [BRL-43694]	0.05		
